Results published in ChEMBL document CHEMBL4402510, “Caprazamycins: Promising lead structures acting on a novel antibacterial target MraY” (Eur J Med Chem, 2019).
Converted amounts (≈) assume the structure as drawn.

Experiments:
Assay type in all cases: functional
[1] = system: Mycobacterium tuberculosis; test: Antibacterial activity against Mycobacterium tuberculosis Kurono
Streptococcus pneumoniae = test: Antibacterial activity against Streptococcus pneumoniae PCI 602
Escherichia coli = test: Antibacterial activity against Escherichia coli K-12
[2] = Antibacterial activity against Mycobacterium avium subsp. avium ATCC 25291
Staphylococcus aureus [3] = test: Antibacterial activity against Staphylococcus aureus FDA 209P
[4] = system: Mycolicibacterium smegmatis; test: Antibacterial activity against Mycobacterium smegmatis ATCC 607
Staphylococcus aureus [5] = test: Antibacterial activity against methicillin resistant Staphylococcus aureus MS16526
[6] = system: Mycobacterium avium subsp. paratuberculosis; test: Antibacterial activity against Mycobacterium avium subsp. paratuberculosis ATCC 43015
Staphylococcus aureus [7] = test: Antibacterial activity against methicillin resistant Staphylococcus aureus No. 5
Mycolicibacterium vaccae = test: Antibacterial activity against Mycobacterium vaccae ATCC 15483
[8] = system: Mycobacterium tuberculosis; test: Antibacterial activity against Mycobacterium tuberculosis H37Rv
[9] = system: Mycobacterium tuberculosis; test: Antibacterial activity against Mycobacterium tuberculosis JCM 6384
Bacillus subtilis = test: Antibacterial activity against Bacillus subtilis PCI 219
Mycolicibacterium phlei = test: Antibacterial activity against Mycobacterium phlei

| Structure (SMILES) | MIC [1] | MIC (Streptococcus pneumoniae) | MIC (Escherichia coli) | MIC [2] | MIC (Staphylococcus aureus [3]) | MIC [4] | MIC (Staphylococcus aureus [5]) | MIC [6] | MIC (Staphylococcus aureus [7]) | MIC (Mycolicibacterium vaccae) | MIC [8] | MIC [9] | MIC (Bacillus subtilis) | MIC (Mycolicibacterium phlei) |
| --- | --- | --- | --- | --- | --- | --- | --- | --- | --- | --- | --- | --- | --- | --- |
| CCCCCNC(=O)C1=CCN(C)[C@@H]([C@H](O[C@@H]2O[C@H](CN)[C@@H](O)[C@H]2O)[C@H]2O[C@@H](n3ccc(=O)[nH]c3=O)[C@H](O)[C@@H]2O)C(=O)N1C | 6.25 µg/mL (≈ 9.97 µM) | > 100 µg/mL | > 100 µg/mL | 100 µg/mL (≈ 160 µM) | 25 µg/mL (≈ 39.9 µM) | 100 µg/mL (≈ 160 µM) | > 100 µg/mL | 100 µg/mL (≈ 160 µM) | > 100 µg/mL | > 100 µg/mL | 12.5 µg/mL (≈ 19.9 µM) | 100 µg/mL (≈ 160 µM) | > 100 µg/mL | > 100 µg/mL |
| CCCCCCCCCCCCCCCCCCCNC(=O)C1=CCN(C)[C@@H]([C@H](O[C@@H]2O[C@H](CN)[C@@H](O)[C@H]2O)[C@H]2O[C@@H](n3ccc(=O)[nH]c3=O)[C@H](O)[C@@H]2O)C(=O)N1C | 1.56 µg/mL (≈ 1.9 µM) | > 100 µg/mL | > 100 µg/mL | 1.56 µg/mL (≈ 1.9 µM) | 6.25 µg/mL (≈ 7.59 µM) | 12.5 µg/mL (≈ 15.2 µM) | 6.25 µg/mL (≈ 7.59 µM) | 0.78 µg/mL (≈ 0.948 µM) | 6.25 µg/mL (≈ 7.59 µM) | 3.13 µg/mL (≈ 3.8 µM) | 1.56 µg/mL (≈ 1.9 µM) | 0.78 µg/mL (≈ 0.948 µM) | 0.78 µg/mL (≈ 0.948 µM) | 25 µg/mL (≈ 30.4 µM) |
| CN1C(=O)[C@H]([C@H](O[C@@H]2O[C@H](CN)[C@@H](O)[C@H]2O)[C@H]2O[C@@H](n3ccc(=O)[nH]c3=O)[C@H](O)[C@@H]2O)N(C)CC=C1C(=O)NC1CCCCCCCCCCC1 | 1.56 µg/mL (≈ 2.16 µM) | > 100 µg/mL | > 100 µg/mL | 3.13 µg/mL (≈ 4.33 µM) | 100 µg/mL (≈ 138 µM) | 3.13 µg/mL (≈ 4.33 µM) | > 100 µg/mL | 0.05 µg/mL (≈ 0.0692 µM) | > 100 µg/mL | 25 µg/mL (≈ 34.6 µM) | 1.56 µg/mL (≈ 2.16 µM) | < 0.05 µg/mL | 1.56 µg/mL (≈ 2.16 µM) | 6.25 µg/mL (≈ 8.65 µM) |
| CCCCCCNC(=O)C1=CCN(C)[C@@H]([C@H](O[C@@H]2O[C@H](CN)[C@@H](O)[C@H]2O)[C@H]2O[C@@H](n3ccc(=O)[nH]c3=O)[C@H](O)[C@@H]2O)C(=O)N1C | 1.56 µg/mL (≈ 2.43 µM) | > 100 µg/mL | > 100 µg/mL | 12.5 µg/mL (≈ 19.5 µM) | > 100 µg/mL | 50 µg/mL (≈ 78 µM) | > 100 µg/mL | 0.78 µg/mL (≈ 1.22 µM) | > 100 µg/mL | 100 µg/mL (≈ 156 µM) | 3.16 µg/mL (≈ 4.93 µM) | 1.56 µg/mL (≈ 2.43 µM) | 25 µg/mL (≈ 39 µM) | 100 µg/mL (≈ 156 µM) |
| CCCCCCCNC(=O)C1=CCN(C)[C@@H]([C@H](O[C@@H]2O[C@H](CN)[C@@H](O)[C@H]2O)[C@H]2O[C@@H](n3ccc(=O)[nH]c3=O)[C@H](O)[C@@H]2O)C(=O)N1C | 1.56 µg/mL (≈ 2.38 µM) | > 100 µg/mL | > 100 µg/mL | 25 µg/mL (≈ 38.2 µM) | 6.25 µg/mL (≈ 9.55 µM) | 25 µg/mL (≈ 38.2 µM) | > 100 µg/mL | 25 µg/mL (≈ 38.2 µM) | > 100 µg/mL | > 100 µg/mL | 3.13 µg/mL (≈ 4.78 µM) | 50 µg/mL (≈ 76.4 µM) | > 100 µg/mL | > 100 µg/mL |
| CCCCCCCCCCCCCCCNC(=O)C1=CCN(C)[C@@H]([C@H](O[C@@H]2O[C@H](CN)[C@@H](O)[C@H]2O)[C@H]2O[C@@H](n3ccc(=O)[nH]c3=O)[C@H](O)[C@@H]2O)C(=O)N1C | 1.56 µg/mL (≈ 2.03 µM) | 3.13 µg/mL (≈ 4.08 µM) | 1.56 µg/mL (≈ 2.03 µM) | 3.13 µg/mL (≈ 4.08 µM) | < 0.2 µg/mL | 1.56 µg/mL (≈ 2.03 µM) | 50 µg/mL (≈ 65.2 µM) | 0.78 µg/mL (≈ 1.02 µM) | > 100 µg/mL | 6.25 µg/mL (≈ 8.15 µM) | 1.56 µg/mL (≈ 2.03 µM) | 1.56 µg/mL (≈ 2.03 µM) | 1.56 µg/mL (≈ 2.03 µM) | 6.25 µg/mL (≈ 8.15 µM) |
| CCCCCCCCCCCCCCNC(=O)C1=CCN(C)[C@@H]([C@H](O[C@@H]2O[C@H](CN)[C@@H](O)[C@H]2O)[C@H]2O[C@@H](n3ccc(=O)[nH]c3=O)[C@H](O)[C@@H]2O)C(=O)N1C | 1.56 µg/mL (≈ 2.07 µM) | 12.5 µg/mL (≈ 16.6 µM) | > 100 µg/mL | 3.13 µg/mL (≈ 4.16 µM) | 3.13 µg/mL (≈ 4.16 µM) | 1.56 µg/mL (≈ 2.07 µM) | 3.13 µg/mL (≈ 4.16 µM) | 0.39 µg/mL (≈ 0.518 µM) | 6.25 µg/mL (≈ 8.3 µM) | 1.56 µg/mL (≈ 2.07 µM) | 1.56 µg/mL (≈ 2.07 µM) | 0.39 µg/mL (≈ 0.518 µM) | 0.2 µg/mL (≈ 0.266 µM) | 0.78 µg/mL (≈ 1.04 µM) |
| CCCCCCCCCCCNC(=O)C1=CCN(C)[C@@H]([C@H](O[C@@H]2O[C@H](CN)[C@@H](O)[C@H]2O)[C@H]2O[C@@H](n3ccc(=O)[nH]c3=O)[C@H](O)[C@@H]2O)C(=O)N1C | 1.56 µg/mL (≈ 2.19 µM) | 50 µg/mL (≈ 70.3 µM) | > 100 µg/mL | 3.13 µg/mL (≈ 4.4 µM) | 6.25 µg/mL (≈ 8.79 µM) | < 0.2 µg/mL | 12.5 µg/mL (≈ 17.6 µM) | 0.2 µg/mL (≈ 0.281 µM) | 25 µg/mL (≈ 35.2 µM) | 1.56 µg/mL (≈ 2.19 µM) | 1.56 µg/mL (≈ 2.19 µM) | 0.2 µg/mL (≈ 0.281 µM) | 0.39 µg/mL (≈ 0.549 µM) | 0.39 µg/mL (≈ 0.549 µM) |
| CCCCCCCCCCCCCNC(=O)C1=CCN(C)[C@@H]([C@H](O[C@@H]2O[C@H](CN)[C@@H](O)[C@H]2O)[C@H]2O[C@@H](n3ccc(=O)[nH]c3=O)[C@H](O)[C@@H]2O)C(=O)N1C | 1.56 µg/mL (≈ 2.11 µM) | 6.25 µg/mL (≈ 8.46 µM) | 100 µg/mL (≈ 135 µM) | 3.13 µg/mL (≈ 4.24 µM) | 3.13 µg/mL (≈ 4.24 µM) | 0.39 µg/mL (≈ 0.528 µM) | 3.13 µg/mL (≈ 4.24 µM) | 0.1 µg/mL (≈ 0.135 µM) | 6.25 µg/mL (≈ 8.46 µM) | 0.78 µg/mL (≈ 1.06 µM) | 1.56 µg/mL (≈ 2.11 µM) | 0.2 µg/mL (≈ 0.271 µM) | 0.39 µg/mL (≈ 0.528 µM) | 0.78 µg/mL (≈ 1.06 µM) |
| CCCCCCCCCCCCCCCCNC(=O)C1=CCN(C)[C@@H]([C@H](O[C@@H]2O[C@H](CN)[C@@H](O)[C@H]2O)[C@H]2O[C@@H](n3ccc(=O)[nH]c3=O)[C@H](O)[C@@H]2O)C(=O)N1C | 3.13 µg/mL (≈ 4.01 µM) | 1.56 µg/mL (≈ 2 µM) | – | 3.13 µg/mL (≈ 4.01 µM) | 0.78 µg/mL (≈ 0.999 µM) | 0.78 µg/mL (≈ 0.999 µM) | – | 6.25 µg/mL (≈ 8 µM) | 1.56 µg/mL (≈ 2 µM) | > 100 µg/mL | 3.13 µg/mL (≈ 4.01 µM) | 3.13 µg/mL (≈ 4.01 µM) | – | > 100 µg/mL |
| CCCCc1ccc(NC(=O)C2=CCN[C@@H]([C@H](O[C@@H]3O[C@H](CN)[C@@H](O)[C@H]3O)[C@H]3O[C@@H](n4ccc(=O)[nH]c4=O)[C@H](O)[C@@H]3O)C(=O)N2C)cc1 | 1.56 µg/mL (≈ 2.31 µM) | 50 µg/mL (≈ 74.1 µM) | > 100 µg/mL | 1.56 µg/mL (≈ 2.31 µM) | 25 µg/mL (≈ 37.1 µM) | 6.25 µg/mL (≈ 9.26 µM) | 100 µg/mL (≈ 148 µM) | 0.39 µg/mL (≈ 0.578 µM) | 100 µg/mL (≈ 148 µM) | 50 µg/mL (≈ 74.1 µM) | 1.56 µg/mL (≈ 2.31 µM) | 0.2 µg/mL (≈ 0.296 µM) | 3.13 µg/mL (≈ 4.64 µM) | 12.5 µg/mL (≈ 18.5 µM) |
| CCCCCCCCCCCCCCCCCCNC(=O)C1=CCN(C)[C@@H]([C@H](O[C@@H]2O[C@H](CN)[C@@H](O)[C@H]2O)[C@H]2O[C@@H](n3ccc(=O)[nH]c3=O)[C@H](O)[C@@H]2O)C(=O)N1C | 1.56 µg/mL (≈ 1.93 µM) | > 100 µg/mL | > 100 µg/mL | 0.78 µg/mL (≈ 0.964 µM) | 6.25 µg/mL (≈ 7.73 µM) | 6.25 µg/mL (≈ 7.73 µM) | 6.25 µg/mL (≈ 7.73 µM) | 0.39 µg/mL (≈ 0.482 µM) | 6.25 µg/mL (≈ 7.73 µM) | 3.13 µg/mL (≈ 3.87 µM) | 1.56 µg/mL (≈ 1.93 µM) | 0.78 µg/mL (≈ 0.964 µM) | < 0.2 µg/mL | 3.13 µg/mL (≈ 3.87 µM) |
| CCCCCCCCCCCCNC(=O)C1=CCN(C)[C@@H]([C@H](O[C@@H]2O[C@H](CN)[C@@H](O)[C@H]2O)[C@H]2O[C@@H](n3ccc(=O)[nH]c3=O)[C@H](O)[C@@H]2O)C(=O)N1C | 1.56 µg/mL (≈ 2.15 µM) | 6.25 µg/mL (≈ 8.62 µM) | 100 µg/mL (≈ 138 µM) | 3.13 µg/mL (≈ 4.32 µM) | 3.13 µg/mL (≈ 4.32 µM) | 0.39 µg/mL (≈ 0.538 µM) | 6.25 µg/mL (≈ 8.62 µM) | – | 12.5 µg/mL (≈ 17.2 µM) | 1.56 µg/mL (≈ 2.15 µM) | 1.56 µg/mL (≈ 2.15 µM) | 0.2 µg/mL (≈ 0.276 µM) | 0.78 µg/mL (≈ 1.08 µM) | 0.39 µg/mL (≈ 0.538 µM) |
